Laboratory results: US6737383B1, “Herbicidal oxadiazolidines” (priority 1999, dated 2004)

Experiments:
winter wheat [1] = experiment: Test E winter wheat; type: in vivo, Triticum aestivum; conditions: Preemergence
blackgrass [2] = experiment: Test B pre/postemergence blackgrass; type: in vivo, Alopecurus myosuroides; conditions: for Blackgrass plant response rating (0 to 10 scale): 0 is no effect
Summary of the method: (§1)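 Herbicidal effect was estimated by eye on a ten-point control scale after plants spent twelve to sixteen days in a greenhouse following soil or foliar treatment. Foliar sprays targeted plants at one to four leaves; all doses were formulated in a non-phytotoxic solvent with surfactant.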

winter barley = experiment: Test E winter barley; type: in vivo, Hordeum vulgare; conditions: Preemergence
wild oat [3] = experiment: Test B pre/postemergence wild oat; type: in vivo, Avena fatua
Summary of the method: as §1

smallflower flatsedge = experiment: Test B flood test smallflower flatsedge; type: in vivo, Cyperus difformis
Summary of the method: (§2)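 Plants were grown to the 2-leaf stage before treatment with test chemical, then held in a greenhouse for twelve to sixteen days. Injury was visually rated against untreated controls on a 0–10 scale, where 0 is no effect and 10 is complete control.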

Italian ryegrass = experiment: Test E Italian ryegrass; type: in vivo, Lolium multiflorum; conditions: Preemergence
winter wheat [4] = experiment: Test E winter wheat; type: in vivo, Triticum aestivum; conditions: Postemergence
Summary of the method: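 For postemergence, application to 1- to 4-leaf plants growing in a 60:40 sandy loam–potting mix substrate. Formulation: non-phytotoxic solvent mixture plus surfactant. Untreated controls served as the reference for the visual rating after ~21–28 days.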

wild oat [5] = experiment: Test E wild oat; type: in vivo, Avena fatua; conditions: Preemergence
blackgrass [6] = experiment: Test E blackgrass; type: in vivo, Alopecurus myosuroides; conditions: Preemergence
bamyardgrass = experiment: Test B flood test barnyardgrass; type: in vivo, Echinochloa crus-galli
Summary of the method: as §2

rice = experiment: Test B flood test rice; type: in vivo, Oryza sativa
Summary of the method: as §2

green foxtail = experiment: Test E green foxtail; type: in vivo, Setaria viridis; conditions: Preemergence
[7] = Rate 500 g/ha, 0 to 100 scale where 0 is no effect and 100 is complete control
[8] = Postemergence, Rate 125 g/ha, scale of 0 to 10 where 0 is no effect and 10 is complete control
[9] = Preemergence, Rate 62 g/ha, scale 0 to 10 (0 no effect, 10 complete control)
[10] = Preemergence, Rate 250 g/ha, scale of 0 to 10 where 0 is no effect and 10 is complete control
[11] = Preemergence, Rate 500 g/ha, scale 0 to 10 (0 no effect, 10 complete control)
[12] = Rate 62 g/ha, Postemergence, scale of 0 to 10 where 0 is no effect and 10 is complete control
[13] = Rate 500 g/ha, Postemergence, scale 0 to 10, 0 no effect, 10 complete control
[14] = Rate 250 g/ha, headed Pre-emergence (flood test species), scale 0 to 10 (0 no effect, 10 complete control)
[15] = Rate 500 g/ha, headed Pre-emergence (flood test species), scale 0 to 10 (0 no effect, 10 complete control)
[16] = Rate 2000 g/ha, Pre-emergence (as headed), scale 0 to 10
[17] = Rate 1000 g/ha, Pre-emergence (as headed), scale 0 to 10
[18] = Rate 125 g/ha, 0 to 100 scale (0 no effect, 100 complete control)
[19] = Preemergence, Rate 62 g/ha, scale of 0 to 10 where 0 is no effect and 10 is complete control
[20] = Preemergence, Rate 125 g/ha, 10 is complete control
[21] = Preemergence, Rate 250 g/ha, scale 0 to 10, 0 is no effect, 10 is complete control
[22] = Rate 125 g/ha, Postemergence, scale 0 to 10
[23] = Rate 62 g/ha, headed Pre-emergence (flood test species), scale 0 to 10 (0 no effect, 10 complete control)
[24] = Rate 125 g/ha, Pre-emergence, flood test species, scale 0 to 10 where 0 is no effect and 10 is complete control
[25] = Rate 250 g/ha, Pre-emergence, flood-test species, scale 0 to 10, 0 is no effect, 10 is complete control
[26] = Rate 62 g/ha, 0 to 100 scale, 0 no effect, 100 complete control
[27] = Preemergence, Rate 500 g/ha, scale of 0 to 10 where 0 is no effect and 10 is complete control
[28] = Rate 62 g/ha, Postemergence section, flood test species, scale of 0 to 10 where 0 is no effect and 10 is complete control
[29] = Rate 125 g/ha, listed under Postemergence (flood test species), scale 0 to 10
[30] = Rate 250 g/ha, Postemergence section, flood test species
[31] = Rate 500 g/ha, listed under Postemergence (flood test species), scale 0 to 10

CC(C)N(C(=O)n1oc(=O)n(C(C)(C)C)c1=O)c1ccc(Cl)cc1 [Compound 118]
50: Plant response rating, Wheat (winter) (winter wheat [1]; Rate 250 g/ha, 0 to 100 scale) | Plant response rating, Barley (winter) (winter barley; [7])
0: Blackgrass plant response rating (blackgrass [2]; [9]) | Blackgrass plant response rating (blackgrass [2]; [12]) | Wild oats plant response rating (wild oat [3]; [8]) | Wild oats plant response rating (wild oat [3]; [9]) | Wild oats plant response rating (wild oat [3]; [12]) | Plant response rating, Wild oats (wild oat [3]; Rate 250 g/ha, Postemergence, scale 0 to 10, 0 is no effect, 10 is complete control) | S. Flatsedge plant response rating (smallflower flatsedge; Pre-emergence, Rate 1000 g/ha, scale 0 to 10 (0 no effect, 10 complete control)) | S. Flatsedge plant response rating (smallflower flatsedge; [14]) | Plant response rating, S. Flatsedge (smallflower flatsedge; [15]) | S. Flatsedge plant response rating (smallflower flatsedge; [16]) | Barnyardgrass plant response rating (bamyardgrass; [14]) | Rice plant response rating (rice; [14]) | Plant response rating, Rice (rice; [15]) | Rice plant response rating (rice; [17]) | Rice plant response rating (rice; [16])
100: Plant response rating, Blackgrass (blackgrass [6]; [7])
1: Wild oats plant response rating (0 to 10 scale) (wild oat [3]; Preemergence, Rate 125 g/ha, 0 is no effect, 10 is complete control) | Plant response rating, Barnyardgrass (bamyardgrass; [15])
80: Plant response rating, Blackgrass (blackgrass [6]; Rate 250 g/ha, 0 to 100 scale)
6: Plant response rating, Wild oats (wild oat [3]; [10]) | Wild oats plant response rating (wild oat [3]; [11]) | Barnyardgrass plant response rating (bamyardgrass; Rate 2000 g/ha, Pre-emergence (as headed), scale 0 to 10, 0 no effect, 10 complete control)
55: Plant response rating, Green foxtail (green foxtail; Rate 250 g/ha, 0 to 100 scale)
2: Plant response rating, Blackgrass (blackgrass [2]; Preemergence, Rate 125 g/ha, scale 0 to 10 (0 no effect, 10 complete control)) | Wild oats plant response rating (wild oat [3]; [13])
9: Blackgrass plant response rating (blackgrass [2]; [13])
3: Plant response rating, Blackgrass (blackgrass [2]; [10]) | Barnyardgrass plant response rating (bamyardgrass; [17])
60: Plant response rating, I. Ryegrass (Italian ryegrass; Rate 250 g/ha, 0 to 100 scale) | Plant response rating, I. Ryegrass (Italian ryegrass; [7])
65: Plant response rating, Barley (winter) (winter barley; Rate 250 g/ha, 0 to 100 scale) | Plant response rating, Wheat (winter) (winter wheat [4]; Rate 250 g/ha, 0 to 100 scale (0 no effect, 100 complete control)) | Plant response rating, Green foxtail (green foxtail; [7])
7: Blackgrass plant response rating (blackgrass [2]; Postemergence, Rate 250 g/ha, scale 0 to 10, 0 no effect, 10 complete control) | Blackgrass plant response rating (blackgrass [2]; [11])
70: Plant response rating, Wheat (winter) (winter wheat [1]; [7]) | Plant response rating, Wheat (winter) (winter wheat [4]; Rate 500 g/ha, 0 to 100 scale, 0 no effect, 100 complete control) | Plant response rating, Wild oat (wild oat [5]; [7])
4: Blackgrass plant response rating (blackgrass [2]; [8])

Cc1nc(C)c(Cn2c(=O)on(C(=O)N(c3ccc(F)cc3)C(C)C)c2=O)s1 [Compound 192]
55: Plant response rating, Wild oat (wild oat [5]; [7])
10: Plant response rating, Wheat (winter) (winter wheat [1]; [18])
60: Plant response rating, I. Ryegrass (Italian ryegrass; [7])
6: Blackgrass plant response rating (blackgrass [2]; [21])
0: Blackgrass plant response rating (blackgrass [2]; [12]) | Blackgrass plant response rating (blackgrass [2]; [22]) | Plant response rating (0 to 10; 0 is no effect, 10 is complete control), Blackgrass (blackgrass [2]; Rate 250 g/ha, Postemergence) | Wild oats plant response rating (wild oat [3]; [19]) | Wild oats plant response rating (wild oat [3]; [12]) | Wild oats plant response rating (wild oat [3]; [22]) | Plant response rating (0 to 10; 0 is no effect, 10 is complete control), Wild oats (wild oat [3]; Rate 250 g/ha, Postemergence) | S. Flatsedge plant response rating (smallflower flatsedge; [23]) | S. Flatsedge plant response rating (smallflower flatsedge; [24]) | S. Flatsedge plant response rating (smallflower flatsedge; [25]) | S. Flatsedge plant response rating (smallflower flatsedge; Rate 500 g/ha, Pre-emergence, flood test species, scale 0 to 10 (0 no effect, 10 complete control)) | Barnyardgrass plant response rating (bamyardgrass; [23]) | Barnyardgrass plant response rating (bamyardgrass; [24]) | Barnyardgrass plant response rating (bamyardgrass; [25]) | Plant response rating, Barnyardgrass (bamyardgrass; [15]) | Rice plant response rating (rice; [23]) | Rice plant response rating (rice; [24]) | Rice plant response rating (rice; [25]) | Plant response rating, Rice (rice; [15])
20: Plant response rating, Barley (winter) (winter barley; [18]) | Plant response rating, I. Ryegrass (Italian ryegrass; [18])
7: Blackgrass plant response rating (blackgrass [2]; [11]) | Wild oats plant response rating (wild oat [3]; [11])
30: Plant response rating, Barley (winter) (winter barley; [7]) | Plant response rating, Wheat (winter) (winter wheat [4]; Rate 125 g/ha, 0 to 100 scale) | Plant response rating, Wild oat (wild oat [5]; [18])
50: Plant response rating, Wheat (winter) (winter wheat [4]; Rate 500 g/ha, 0 to 100 scale, 0 is no effect, 100 is complete control) | Plant response rating, Blackgrass (blackgrass [6]; [7]) | Plant response rating, Green foxtail (green foxtail; [18])
40: Plant response rating, Wheat (winter) (winter wheat [1]; [7]) | Plant response rating, Blackgrass (blackgrass [6]; [18])
65: Plant response rating, Green foxtail (green foxtail; [7])
5: Blackgrass plant response rating (blackgrass [2]; [19]) | Blackgrass plant response rating (0 to 10 scale) (blackgrass [2]; [20]) | Wild oats plant response rating (wild oat [3]; [21])

C=C(C)CCn1c(=O)on(C(=O)N(c2ccc(F)cc2)C(C)C)c1=O [Compound 199]
7: Plant response rating, Wild oats (wild oat [3]; [27]) | S. Flatsedge plant response rating (smallflower flatsedge; [31])
60: Plant response rating, Wheat (winter) (winter wheat [1]; [26]) | Plant response rating, I. Ryegrass (Italian ryegrass; [18]) | Plant response rating, Wild oat (wild oat [5]; [26]) | Plant response rating, Blackgrass (blackgrass [6]; [26]) | Blackgrass plant response rating (0 to 100 scale) (blackgrass [6]; Rate 250 g/ha)
55: Plant response rating, Wheat (winter) (winter wheat [4]; Rate 125 g/ha, 0 to 100 scale)
50: Wheat (winter) plant response rating (0 to 100 scale) (winter wheat [1]; Rate 250 g/ha) | Plant response rating, Wheat (winter) (winter wheat [4]; Rate 62 g/ha, 0 to 100 scale)
2: Plant response rating (0 to 10; 0 is no effect, 10 is complete control), S. Flatsedge (smallflower flatsedge; [30])
9: Plant response rating (0 to 10; 0 is no effect, 10 is complete control), Blackgrass (blackgrass [2]; Rate 250 g/ha, Postemergence) | Blackgrass plant response rating (blackgrass [2]; Rate 500 g/ha, Postemergence, scale 0 to 10)
6: Blackgrass plant response rating (blackgrass [2]; [19])
70: Plant response rating, Wheat (winter) (winter wheat [1]; [18]) | Plant response rating, Barley (winter) (winter barley; [26]) | Plant response rating, Barley (winter) (winter barley; [18]) | Barley (winter) plant response rating (0 to 100 scale) (winter barley; Rate 250 g/ha) | Plant response rating, I. Ryegrass (Italian ryegrass; [26]) | I. Ryegrass plant response rating (0 to 100 scale) (Italian ryegrass; Rate 250 g/ha) | Plant response rating, Wild oat (wild oat [5]; [18])
4: Blackgrass plant response rating (blackgrass [2]; [22]) | Wild oats plant response rating (wild oat [3]; [21])
8: Barnyardgrass plant response rating (bamyardgrass; [31])
0: Blackgrass plant response rating (blackgrass [2]; [12]) | Wild oats plant response rating (wild oat [3]; [19]) | Wild oats plant response rating (wild oat [3]; [12]) | Wild oats plant response rating (wild oat [3]; [22]) | Plant response rating (0 to 10; 0 is no effect, 10 is complete control), Wild oats (wild oat [3]; Rate 250 g/ha, Postemergence) | S. Flatsedge plant response rating (smallflower flatsedge; [28]) | S. Flatsedge plant response rating (smallflower flatsedge; [29]) | Barnyardgrass plant response rating (bamyardgrass; [28]) | Barnyardgrass plant response rating (bamyardgrass; [29]) | Plant response rating (0 to 10; 0 is no effect, 10 is complete control), Barnyardgrass (bamyardgrass; [30]) | Rice plant response rating (rice; [28]) | Rice plant response rating (rice; [29]) | Plant response rating (0 to 10; 0 is no effect, 10 is complete control), Rice (rice; [30]) | Rice plant response rating (rice; [31])
100: Plant response rating, Green foxtail (green foxtail; [26]) | Plant response rating, Green foxtail (green foxtail; [18]) | Green foxtail plant response rating (0 to 100 scale) (green foxtail; Rate 250 g/ha)
80: Wild oat plant response rating (0 to 100 scale) (wild oat [5]; Rate 250 g/ha)
65: Plant response rating, Blackgrass (blackgrass [6]; [18])
10: Blackgrass plant response rating (0 to 10 scale) (blackgrass [2]; [20]) | Blackgrass plant response rating (blackgrass [2]; [21]) | Plant response rating, Blackgrass (blackgrass [2]; [27])
